Data published in patent publication US10875851B2, “Factor XIIa inhibitors” (Merck Sharp & Dohme Corp., priority 2016, dated 2020).
pIC50: −log10 of the molar value.

Each compound was assayed against human Factor XIIa (Homo sapiens (Human), UniProt P00748) (assay: Factor XIIa Assay). Settings: purified human Factor XIIa 500 pM; substrate n-Acetyl-Lys-Pro-Arg-AFC 100 μM; pH 7.4; read-out: FXIIa IC50.
Type: biochemical
Description: The effectiveness of a compound of the present invention as an inhibitor of Coagulation Factor XIIa can be determined using a relevant purified serine protease, and an appropriate synthetic substrate. The rate of hydrolysis of the chromogenic or fluorogenic substrate by the relevant serine protease was measured both in the absence and presence of compounds of the present invention. Assays were conducted at room temperature or at 37° C. […] A decrease in the rate of fluorescence change in the presence of inhibitor is indicative of enzyme inhibition. Such methods are known to one skilled in the art.
Factor XIIa activity determinations were made in 50 mM HEPES buffer containing 150 mM NaCl, 5 mM CaCl2, and 0.1% PEG 8000 (polyethylene glycol; JT Baker or Fisher Scientific) at pH 7.4. Determinations were made using purified human Factor XIIa at a final concentration of 500 pM (Sekisui Diagnostics) and the synthetic substrate, n-Acetyl-Lys-Pro-Arg-AFC, TFA salt (Sigma #C6608) at a concentration of 100 μM.
Times required to achieve equilibration between enzyme and inhibitor were determined in control experiments. Initial velocities of product formation in the absence (Vo) or presence of inhibitor (Vi) were measured. IC50 was determined as the concentration of I yielding Vi=Vo/2.

human Factor XIIa, sequence (P00748 373-615): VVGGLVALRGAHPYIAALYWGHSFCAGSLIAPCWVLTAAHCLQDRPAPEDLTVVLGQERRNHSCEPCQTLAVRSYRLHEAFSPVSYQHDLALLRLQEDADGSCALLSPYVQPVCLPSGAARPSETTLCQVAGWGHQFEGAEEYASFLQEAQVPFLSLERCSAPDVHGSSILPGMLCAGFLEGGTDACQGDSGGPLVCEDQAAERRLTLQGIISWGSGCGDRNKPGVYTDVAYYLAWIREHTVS

| Compound | pIC50 |
| --- | --- |
| CN(C)CCCC[C@@H](NC1CCC2(CC1)CCN(Cc1ccccc1)C2)C(=O)N1CCN(C(=O)Oc2ccccc2Cl)C[C@H]1C(=O)NCc1cccs1 (stereo partly drawn) [Example 78, 2-chlorophenyl (3S)-4-[N^2-(2-benzyl-2-azaspiro[4.5]dec-8-yl)-N^6,N^6-dimethyl-D-lysyl]-3-[(thiophen-2-ylmethyl)carbamoyl]piperazine-1-carboxylate] | 9.05 |
| C[C@@H]1N=C(N2CCN(C(=O)[C@@H](CCCCNS(C)(=O)=O)NC3CCCCC3)[C@H](C(=O)NCc3cccs3)C2)O[C@H]1c1cccc(Br)c1 [Example 124, (2S)-4-[(4S,5S)-5-(3-bromophenyl)-4-methyl-4,5-dihydro-1,3-oxazol-2-yl]-1-[N^2-cyclohexyl-N^6-(methylsulfonyl)-D-lysyl]-N-(thiophen-2-ylmethyl)piperazine-2-carboxamide] | 7.61 |
| CS(=O)(=O)NCCCC[C@@H](NC1CCCC1)C(=O)N1CCN(C(=O)Oc2ccc3ccccc3c2Cl)C[C@H]1C(=O)NCc1cccs1 [Example 113, 1-chloronaphthalen-2-yl (3S)-4-[N^2-cyclopentyl-N~6~-(methylsulfonyl)-D-lysyl]-3-[(thiophen-2-ylmethyl)carbamoyl]piperazine-1-carboxylate] | 8.08 |
| Cc1ccc(OC(=O)N2CCN(C(=O)[C@@H](CCCCNC(C)C)NC3CCC4(CC3)CCN(Cc3ccccc3)C4)[C@H](C(=O)NCc3cccs3)C2)c(Cl)c1C (stereo partly drawn) [Example 105, 2-chloro-3,4-dimethylphenyl (3S)-4-[N^2-(2-benzyl-2-azaspiro[4.5]dec-8-yl)-N^6-(1-methylethyl)-D-lysyl]-3-[(thiophen-2-ylmethyl)carbamoyl]piperazine-1-carboxylate] | 9.30 |
| CC[C@@H](NC1CCC2(CC1)CCN(Cc1ccccc1)C2)C(=O)N1CCN(C(=O)Oc2ccc(C)c(C)c2Cl)C[C@H]1C(=O)NCc1ccc(CN)c(OC)c1 (stereo partly drawn) [Example 107, 2-chloro-3,4-dimethylphenyl (3S)-3-{[4-(aminomethyl)-3-methoxybenzyl]carbamoyl}-4-{(2R)-2-[(2-benzyl-2-azaspiro[4.5]dec-8-yl)amino]butanoyl}piperazine-1-carboxylate] | 7.85 |
| COc1cc(CNC(=O)[C@@H]2CN(C(=O)Oc3ccc4ccccc4c3Cl)CCN2C(=O)[C@@H](CCCCN(C)C)N(C)C2CCC3(CC2)CCN(Cc2ccccc2)C3)ccc1CN (stereo partly drawn) [Example 87, 1-chloronaphthalen-2-yl (3S)-3-{[4-(aminomethyl)-3-methoxybenzyl]carbamoyl}-4-[N^2-(2-benzyl-2-azaspiro[4.5]dec-8-yl)-N^2,N^6,N^6-trimethyl-D-lysyl]piperazine-1-carboxylate] | 9.00 |
| C[C@@H]1N=C(N2CCN(C(=O)[C@@H](CCCCNS(C)(=O)=O)NC3CCCCC3)[C@H](C(=O)NCc3cccs3)C2)O[C@H]1c1cccc(CN)c1 [Example 117, (2S)-4-{(4S,5S)-5-[3-(aminomethyl)phenyl]-4-methyl-4,5-dihydro-1,3-oxazol-2-yl}-1-[N^2-cyclohexyl-N^6-(methylsulfonyl)-D-lysyl]-N-(thiophen-2-ylmethyl)piperazine-2-carboxamide] | 8.28 |
| COc1cc(CNC(=O)[C@@H]2CN(C(=O)Oc3ccccc3Cl)CCN2C(=O)[C@@H](CCCCNS(C)(=O)=O)NC2CCC3(CC2)CCN(Cc2ccccc2)C3)ccc1CN (stereo partly drawn) [Example 85, 2-chlorophenyl (3S)-3-{[4-(aminomethyl)-3-methoxybenzyl]carbamoyl}-4-[N^2-(2-benzyl-2-azaspiro[4.5]dec-8-yl)-N^6-(methylsulfonyl)-D-lysyl]piperazine-1-carboxylate] | 8.08 |
| CC[C@@H](NC1CCCCC1)C(=O)N1CCN(C(=O)Oc2ccc(C)c(C)c2Cl)C[C@H]1C(=O)NCc1ccc(CN)c(OC)c1 [Example 106, 2-chloro-3,4-dimethylphenyl (3S)-3-{[4-(aminomethyl)-3-methoxybenzyl]carbamoyl}-4-[(2R)-2-(cyclohexylamino)butanoyl]piperazine-1-carboxylate] | 8.21 |
| CC1(C)N=C(N2CCN(C(=O)[C@@H](CC3CCCCC3)NC3CCCCC3)[C@H](C(=O)NCc3cccs3)C2)OC1c1ccccc1 (stereo partly drawn) [Example 140, (2S)-1-(N,3-dicyclohexyl-D-alanyl)-4-(4,4-dimethyl-5-phenyl-4,5-dihydro-1,3-oxazol-2-yl)-N-(thiophen-2-ylmethyl)piperazine-2-carboxamide] | 7.72 |
| CN(C)CCCC[C@H](C(=O)N1CCN(C2=NC(C)(C)C(c3ccccc3)O2)C[C@H]1C(=O)NCc1ccc2[nH]cc(Cl)c2c1)N(C)C (stereo partly drawn) [Example 145, (2S)-N-[(3-chloro-1H-indol-5-yl)methyl]-4-(4,4-dimethyl-5-phenyl-4,5-dihydro-1,3-oxazol-2-yl)-1-(N^2,N^2,N^6,N^6-tetramethyl-D-lysyl)piperazine-2-carboxamide] | 8.17 |

Continued, values first:

| pIC50 | Compound |
| --- | --- |
| 7.64 | C[C@@H]1N=C(N2CCN(C(=O)[C@@H](CCCCNS(C)(=O)=O)NC3CCCCC3)[C@H](C(=O)NCc3cccs3)C2)O[C@H]1c1cccc(Cl)c1 [Example 125, (2S)-4-[(4S,5S)-5-(3-chlorophenyl)-4-methyl-4,5-dihydro-1,3-oxazol-2-yl]-1-[N^2-cyclohexyl-N^6-(methylsulfonyl)-D-lysyl]-N-(thiophen-2-ylmethyl)piperazine-2-carboxamide] |
| 7.90 | CC(C)N[C@H](CCCCN1CCCCC1)C(=O)N1CCN(C2=NC(C)[C@H](c3cccc(C#N)c3)O2)C[C@H]1C(=O)NCc1cccs1 (stereo partly drawn) [Example 169, (2S)-4[5-(3-cyanophenyl)-4-methyl-4,5-dihydro-1,3-oxazol-2-yl]-1-[N-(1-methylethyl)-6-piperidin-1-yl-D-norleucyl]-N-(thiophen-2-ylmethyl)piperazine-2-carboxamide] |
| 7.66 | C[C@@H]1N=C(N2CCN(C(=O)[C@H](N)CCCCN3CCCCC3)[C@H](C(=O)NCc3cccc(Cl)c3)C2)O[C@H]1c1ccccc1 [Example 161, (2S)-N-(3-chlorobenzyl)-4-[(4S,5S)-4-methyl-5-phenyl-4,5-dihydro-1,3-oxazol-2-yl]-1-(6-piperidin-1-yl-D-norleucyl)piperazine-2-carboxamide] |
| 7.33 | CC(C)N[C@H](CCCCN1CCCCC1)C(=O)N1CCN(C2=N[C@@H](C)[C@H](c3ccccc3)O2)C[C@H]1C(=O)NCc1ccc(CN)cc1 [Example 180, (2S)-N-[4-(aminomethyl)benzyl]-1-[N-(1-methylethyl)-6-piperidin-1-yl-D-norleucyl]-4-[(4S,5S)-4-methyl-5-phenyl-4,5-dihydro-1,3-oxazol-2-yl]piperazine-2-carboxamide] |
| 7.44 | C[C@@H]1N=C(N2CCN(C(=O)[C@H](N)CCCCN3CCCCC3)[C@H](C(=O)NCc3cccc(Cl)c3)C2)O[C@H]1c1cccc(Br)c1 [Example 167, (2S)-4-[(4S,5S)-5-(3-bromophenyl)-4-methyl-4,5-dihydro-1,3-oxazol-2-yl]-N-(3-chlorobenzyl)-1-(6-piperidin-1-yl-D-norleucyl)piperazine-2-carboxamide] |
| 7.55 | C[C@@H]1N=C(N2CCN(C(=O)[C@@H](CCCCN3CCCCC3)NC3CCC(CN)CC3)[C@H](C(=O)NCc3ccc(C(N)=O)s3)C2)O[C@H]1c1ccccc1 (stereo partly drawn) [Example 177, (2S)-1-{N-[4-(aminomethyl)cyclohexyl]-6-piperidin-1-yl-D-norleucyl}-N-[(5-carbamoylthiophen-2-yl)methyl]-4-[(4S,5S)-4-methyl-5-phenyl-4,5-dihydro-1,3-oxazol-2-yl]piperazine-2-carboxamide] |
